Data published in patent publication US10294234B2, “HIV inhibitor compounds” (priority 2017, dated 2019).
pEC50: −log10 of the molar value.

Key:
[1] = microsomes
Outline: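 Depletion measured by LC/MS/MS at 2, 12, 25, 45 and 65 minutes after 1 uM compound was added to liver microsomes (0.5 mg/mL; dog, rat, human) with NADPH-regenerating cofactor, in duplicate. In vitro t1/2 converted to Clint.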

[2] = tested on: HIV-1 (IIIB) in MT-4 cells; assay: MT-4 HIV assay; type: cell-based; conditions: Human immunodeficiency virus 1, MT4, 120 h; HIV-1 (IIIB), MT-4 cells, 5 days, Cell Titer Glo; read-out: EC50
Outline: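 Antiviral activity was read by Cell Titer Glo after a 5-day, 37 °C culture of MT-4 cells pre-infected with a 1:250 dilution of HIV-1 (IIIB). Compounds were tested as threefold dilution series in complete RPMI. Controls were no drug, mock infection and 5 uM AZT.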

[3] = 3H Human Predicted Clearance Assay (tritiated analogs); type: in vitro ADME; conditions: human, 1 uM
Experimental: 3H Human Predicted Clearance Assay:
For certain compounds, tritiated analogs (H^3) were prepared to further determined their human predicted clearance with increased resolution. Those studies were performed as described above using the tritiated analogs. Data from those compounds is found in Table 2 below and reported in FIG. 1 (note ATV and DRV were not tritiated).

[4] = in vivo
Experimental: Pharmacokinetic Profiling Dog PK
Each dosing group consisted of three non-naïve male beagle dogs. At dosing, the animals weighed between 9 to 12 kg. The animals were fasted overnight prior to dose administration and up to four hours after dosing. The test article was administered by intravenous infusion over 30-minutes. The rate of infusion was adjusted according to the body weight of each animal to deliver a dose of 0.5 or 1.0 mg/kg. For the oral dosing group, the test article was administered by oral gavage at a dose volume of 2 mL/kg.
Serial venous blood samples (approximately 1.0 mL each) were collected at predose and 0.25, 0.48, 0.58, 0.75, 1.0, 1.5, 2, 4, 8, 12 and 24 hours post dose from each animal for the IV dosing group; blood samples were collected at predose, 0.25, 0.50, 1, 2 4, 6, 8,12 and 24 hours post dose for the oral dosing group. The blood samples were collected into Vacutainer™ tubes containing EDTA-K2 as the anti-coagulant and were immediately placed on wet ice pending centrifugation for plasma. An LC/MS/MS method was used to measure the concentration of test compound in plasma. Non-compartmental pharmacokinetic analysis was performed on the plasma concentration-time data. VSS=apparent volume of distribution, t1/2=half life, F=oral bioavailability.

[5] = in vivo; conditions: rat, in vivo; for Vd / RAT PO F: male, SD; for Vd / RAT IV CL / RAT IV T1/2: iv; for RAT PO F: 2.5 mg/kg
Experimental: Each dosing group consisted of 3 male naïve SD Rats. At dosing, the animals weighed between 0.27 to 0.32 kg. The animals were fasted overnight prior to dose administration. The test article was administered by intravenous infusion over 30 min. The rate of infusion was adjusted according to the body weight of each animal to deliver a dose of 0.5 or 1.0 mg/kg. For the oral dosing group, the test article was administered to animals by oral gavage administration. Serial venous blood samples (approximately 0.30 mL each) were taken at predose and 0.25, 0.48, 0.58, 0.75, 1.5, 3, 6, 8, 12 and 24 hours post dose for the IV dosing group animals. Blood samples were taken at predose, 0.25, 0.50, 1, 2, 4, 6, 8, 12 and 24 hours post dose for the oral group animals. The blood samples were collected into Vacutainer™ tubes containing EDTA-K2 as the anti-coagulant and were immediately placed on wet ice pending centrifugation for plasma. An LC/MS/MS method was used to measure the concentration of test compound in plasma. Non-compartmental pharmacokinetic analysis was performed on the plasma concentration-time data.

| Structure (SMILES) | Human Pred Cl. [1] [L/H/kg] | Rat. Pred. Cl. [1] [L/H/kg] | pEC50 [2] | 3H Human Predicted Cl. [3] | Dog. Pred. Cl. [1] [L/H/kg] | DOG IV CL ([4]; dog, in vivo, iv) [mL/min/kg] | DOG IV T1/2 ([4]; male beagle dogs, IV infusion over 30 minutes, 0.5 or 1.0 mg/kg) [h] | Vd ([4]; male, beagle, dog, in vivo, iv) [L/kg] | Vd [5] [L/kg] | RAT PO F [5] [%] | RAT IV CL [5] [mL/min/kg] | RAT IV T1/2 [5] [h] |
| --- | --- | --- | --- | --- | --- | --- | --- | --- | --- | --- | --- | --- |
| COC(=O)N[C@H](C(=O)N[C@@H](Cc1ccc(C#Cc2ccc(N3CC4CC(C3)N4C3COC3)nc2)cc1)[C@@H](O)CN(Cc1c(F)cc(-c2ccn(C(F)F)n2)cc1F)NC(=O)[C@@H](NC(=O)OC)C(C)(C)C(F)(F)F)C(C)(C)C(F)(F)F [Example 176, Methyl ((5S,8S,9S,14S)-11-(4-(1-(difluoromethyl)-1H-pyrazol-3-yl)-2,6-difluorobenzyl)-16,16,16-trifluoro-9-hydroxy-15,15-dimethyl-8-(4-((6-(6-(oxetan-3-yl)-3,6-diazabicyclo[3.1.1]heptan-3-yl)pyridin-3-yl)ethynyl)benzyl)-3,6,13-trioxo-5-(1,1,1-trifluoro-2-methylpropan-2-yl)-2-oxa-4,7,11,12-tetraazahexadecan-14-yl)carbamate] | <0.11 | 0.75 | 8.47 | 0.09 | – | – | – | – | – | – | – | – |
| COC(=O)N[C@H](C(=O)N[C@@H](Cc1ccc(C#Cc2cnc(N3CC4CCC(C3)N4C3COC3)c(C)c2)cc1)[C@@H](O)CN(Cc1c(F)cc(-c2cnn(C(F)F)c2)cc1F)NC(=O)[C@@H](NC(=O)OC)C(C)(C)C(F)(F)F)C(C)(C)C(F)(F)F [Example 153, Methyl ((5S,8S,9S,14S)-11-(4-(1-(difluoromethyl)-1H-pyrazol-4-yl)-2,6-difluorobenzyl)-16,16,16-trifluoro-9-hydroxy-15,15-dimethyl-8-(4-((5-methyl-6-(8-(oxetan-3-yl)-3,8-diazabicyclo[3.2.1]octan-3-yl)pyridin-3-yl)ethynyl)benzyl)-3,6,13-trioxo-5-(1,1,1-trifluoro-2-methylpropan-2-yl)-2-oxa-4,7,11,12-tetraazahexadecan-14-yl)carbamate] | – | – | – | 0.43 | – | – | – | – | – | – | – | – |
| COC(=O)N[C@H](C(=O)N[C@@H](Cc1ccc(C#Cc2ccc(N3CC4CCC(C3)N4C3COC3)nc2)cc1)[C@@H](O)CN(Cc1ccc(-c2cnn(C(F)F)c2)cc1)NC(=O)[C@@H](NC(=O)OC)C(C)(C)C(F)(F)F)C(C)(C)C(F)(F)F [Example 63, Methyl ((5S,8S,9S,14S)-11-(4-(1-(difluoromethyl)-1H-pyrazol-4-yl)benzyl)-16,16,16-trifluoro-9-hydroxy-15,15-dimethyl-8-(4-((6-(8-(oxetan-3-yl)-3,8-diazabicyclo[3.2.1]octan-3-yl)pyridin-3-yl)ethynyl)benzyl)-3,6,13-trioxo-5-(1,1,1-trifluoro-2-methylpropan-2-yl)-2-oxa-4,7,11,12-tetraazahexadecan-14-yl)carbamate] | <0.11 | 0.2 | 8.37 | – | 0.86 | 4.67 | 8.16 | 2.4 | 5.46 | 19 | 7 | 11.9 |
| COC(=O)N[C@H](C(=O)N[C@@H](Cc1ccc(C#Cc2ccc(N3CC4CCC(C3)N4C3COC3)nc2)cc1)[C@@H](O)CN(Cc1c(F)cc(-c2cnn(C(F)F)c2)cc1F)NC(=O)[C@@H](NC(=O)OC)C(C)(C)C(F)(F)F)C(C)(C)C(F)(F)F [Example 71, Methyl ((5S,8S,9S,14S)-11-(4-(1-(difluoromethyl)-1H-pyrazol-4-yl)-2,6-difluorobenzyl)-16,16,16-trifluoro-9-hydroxy-15,15-dimethyl-8-(4-((6-(8-(oxetan-3-yl)-3,8-diazabicyclo[3.2.1]octan-3-yl)pyridin-3-yl)ethynyl)benzyl)-3,6,13-trioxo-5-(1,1,1-trifluoro-2-methylpropan-2-yl)-2-oxa-4,7,11,12-tetraazahexadecan-14-yl)carbamate] | <0.11 | <0.18 | 8.47 | – | 0.47 | – | – | – | 7.26 | 24.6 | 15 | 9.27 |
| COC(=O)N[C@H](C(=O)N[C@@H](Cc1ccc(C#Cc2ccc(N3CC4CCC(C3)N4C3COC3)nc2)cc1)[C@@H](O)CN(Cc1c(F)cc(-c2ccccn2)cc1Cl)NC(=O)[C@@H](NC(=O)OC)C(C)(C)C(F)(F)F)C(C)(C)C(F)(F)F [Example 74, Methyl ((5S,8S,9S,14S)-11-(2-chloro-6-fluoro-4-(pyridin-2-yl)benzyl)-16,16,16-trifluoro-9-hydroxy-15,15-dimethyl-8-(4-((6-(8-(oxetan-3-yl)-3,8-diazabicyclo[3.2.1]octan-3-yl)pyridin-3-yl)ethynyl)benzyl)-3,6,13-trioxo-5-(1,1,1-trifluoro-2-methylpropan-2-yl)-2-oxa-4,7,11,12-tetraazahexadecan-14-yl)carbamate] | 0.17 | 0.2 | 8.17 | – | 1.53 | – | – | – | 5.07 | 35.8 | 6.5 | 11.6 |
| COC(=O)N[C@H](C(=O)N[C@@H](Cc1ccc(C#Cc2ccc(N3CC4COCC(C3)N4C3COC3)nc2)cc1)[C@@H](O)CN(Cc1c(F)cc(-c2ccn(C(F)F)n2)cc1F)NC(=O)[C@@H](NC(=O)OC)C(C)(C)C(F)(F)F)C(C)(C)C(F)(F)F [Example 180, Methyl ((5S,8S,9S,14S)-11-(4-(1-(difluoromethyl)-1H-pyrazol-3-yl)-2,6-difluorobenzyl)-16,16,16-trifluoro-9-hydroxy-15,15-dimethyl-8-(4-((6-(9-(oxetan-3-yl)-3-oxa-7,9-diazabicyclo[3.3.1]nonan-7-yl)pyridin-3-yl)ethynyl)benzyl)-3,6,13-trioxo-5-(1,1,1-trifluoro-2-methylpropan-2-yl)-2-oxa-4,7,11,12-tetraazahexadecan-14-yl)carbamate] | <0.11 | <0.18 | 8.43 | – | – | – | – | – | 0.52 | 4.29 | 6.5 | 2.81 |
| COC(=O)N[C@H](C(=O)N[C@@H](Cc1ccc(C#Cc2ccc(N3CC4CCC(C3)N4C3COC3)nc2)cc1)[C@@H](O)CN(Cc1c(F)cc(-c2ccccn2)cc1F)NC(=O)[C@@H](NC(=O)OC)C(C)(C)C(F)(F)F)C(C)(C)C(F)(F)F [Example 130, Methyl ((5S,8S,9S,14S)-11-(2,6-difluoro-4-(pyridin-2-yl)benzyl)-16,16,16-trifluoro-9-hydroxy-15,15-dimethyl-8-(4-((6-(8-(oxetan-3-yl)-3,8-diazabicyclo 3.2.1 octan-3-yl)pyridin-3-yl)ethynyl)benzyl)-3,6,13-trioxo-5-(1,1,1-trifluoro-2-methylpropan-2-yl)-2-oxa-4,7,11,12-tetraazahexadecan-14-yl)carbamate] | 0.32 | <0.18 | 8.47 | – | – | – | – | – | 5.27 | 55.7 | 6.5 | 11.5 |
